Experiments:
Calu-3 cells = assay: Cytotoxicity evaluation in Calu-3 cells; type: cell-based, Homo sapiens; settings: Calu-3, 72 h treatment
Experimental: In a next step, Calu-3 cells were incubated with increasing amounts of ATR-002 over 24, 48 or 72 hours. Specifically, Calu-3 cells were infected with SARS-CoV-2 (FI) using a MOI of 0.01. 1 h.p.i. cells were treated with ATR-002. Mock, SARS-CoV-2 and DMSO served as controls. […] Untreated (SARS-CoV-2) and DMSO (0.1%) treated cells served as negative controls. […] DMSO was used as reference. […] Data in combination with (C) was used to calculate the CC50 value and the selectivity index (SI).

[1] = tested on: peripheral blood mononuclear cells (PBMC's); assay: T-cell Inflammation Inhibition Assay (Anti-CD3 Stimulation); type: cell-based, human; settings: ATR-002 100, 50, 25 μM, Dexamethasone 100 nM, 24 h
LPS induced PMBC cells = assay: LPS induced cytokine expression in PBMC; type: cell-based, human; settings: 10 μg/ml
Description: In order to check what concentration of ATR-002 would be necessary for cytokine reduction, the amounts of IP10, TNF-alpha and MCP-1 expression was studied in LPS induced PMBC cells after ATR-002 treatment.

SARS-CoV-2 [2] = type: cell-based; settings: Caco-2, Vero E6, Calu-3; MOI 0.01; 100, 75, 50 μM; 24 h
[3] = human, in vivo
Experimental: Specifically, as described previously, in Phase I clinical studies PD-0184264 was administered with a starting dose of 100 mg and up to three escalation steps in seven arms, following a single ascending dose/multiple ascending dose (SAD/MAD) regime. Administration scheme was one dose PD-0184264, escalating 100 mg to 900 mg (SAD), followed by seven doses PD-0184264, escalating 100 mg to 600 mg QD over seven days (MAD).

[4] = tested on: VSV pseudotype virus carrying the SARS-CoV-2 Spike protein; type: cell-based
SARS-CoV-2 [5] = type: cell-based; settings: CaCo-2 cells infected SARS-CoV-2 (MOI 0.1); 0.098-100 μM, 24 h
[6] = tested on: IL-6, IL-8, MCP-1, IP-10 and CCL5 mRNA; assay: Pro-inflammatory cytokine mRNA in SARS-CoV-2 infected Calu-3 cells (real-time PCR); type: cell-based, Homo sapiens; settings: Calu-3, SARS-CoV-2 (FI) MOI 0.01, increasing amounts
SARS-CoV-2 strain FI = assay: Plaque assay, infection of Vero cells with SARS-CoV-2 upon MEK inhibition; type: cell-based; settings: MOI 0.01, 50 μM, 24 h, 36 h and 48 h
Experimental: To determine the virus titer a standard plaque assay was performed. Vero cells were infected with SARS-CoV-2 strain FI (MOI 0.01). 1 hour post infection, the cells were treated with 50 μM ATR-002 or the respective amount of DMSO as a control. The compounds were present in the culture medium during the complete infection time. After 24, 36 and 48 hpi, supernatants were collected and virus titers quantified by plaque assay below.
Vero E6 cells were seeded at 100% confluency in 6-well plates (Greiner Bio-One, Cat. 657-160). 6-fold dilutions of virus samples were prepared in Vero E6 infection medium (IMDM, Gibco, Cat. 12440-053) supplemented with 5% FCS (Capricorn, Cat. FBS-12A) and 1% Penicillin/Streptomycin (Sigma Aldrich Cat. P4333). The cells were washed once with Vero E6 infection medium before infection with 1 mL per well of the virus dilutions for 1 h at 37° C., 5% CO2. […] The virus titer was calculated based on the number of plaques per well and the respective dilution factor.

[7] = tested on: peripheral blood mononuclear cells (PBMC's); assay: T-Cell Inflammation Inhibition Assay (PHA Stimulation); type: cell-based, human; settings: ATR-002 100, 50, 25 μM, Dexamethasone 100 nM, 24 h
SARS-CoV-2 [8] = assay: SARS-CoV-2 Syrian hamster infection model; settings: for reduction of progeny virus in throat swabs (TCID50): 100 mg/kg then 75 mg/kg once daily oral; for reduction of progeny virus in throat swabs (TCID50) / reduction of viral load in throat swabs (PCR): day 3 p.i.; for tolerability, weight loss, adverse effects: compared to vehicle
[9] = tested on: peripheral blood mononuclear cells (PBMC's); assay: T-Cell Inflammation Inhibition Assay (ConA Stimulation); type: cell-based, human; settings: ATR-002 100, 50, 25 μM, Dexamethasone 100 nM, 24 h
[10] = tested on: cytokine & chemokine gene expression in lungs; assay: Acute lung injury (ALI) mouse model, LPS induced cytokine and chemokine gene expression; type: in vivo; settings: LPS 5 mg/kg i.p.; 25 mg/kg i.p. 1 h post stimulation; 6 h post treatment
SARS-CoV-2 (FI) = type: cell-based
MCP-1 = MCP-1 in SARS-CoV-2 infected CaCo2 cells; type: cell-based, Homo sapiens; settings: high amount necessary
[11] = treatment start 4 hours p.i., day 4 p.i.
[12] = treatment start 24 hours p.i., day 4 p.i.

Compound: O=C(O)c1ccc(F)c(F)c1Nc1ccc(I)cc1Cl [ATR-002, 2-(2-chloro-4-iodophenylamino)-N-3,4-difluoro benzoic acid]
- cytotoxicity at antiviral concentrations (Calu-3 cells): non-toxic concentration range
- inhibition of cytokine/chemokine stimulation (summary) [1]: significant, dose dependent inhibition
- IP10 expression (LPS induced PMBC cells; LPS induced PBMC): reduced
- TNF-alpha expression (LPS induced PMBC cells; LPS induced PBMC): reduced
- inhibition at 10 µg/mL (LPS induced PMBC cells; PBMC, human PBMCs, read-out: inhibition of LPS induced MCP-1): > 90%
- virus titer via RT-qPCR, effect across cell types (SARS-CoV-2 [2]): effect seen on all cell types was comparable
- pharmacokinetic profile [3]: supports the intended once-daily regime
- pharmacokinetics exposure, blood levels [3]: maintenance of clinically relevant blood levels
- safety of each dose cohort (Safety Review Committee) [3]: considered to be safe
- internalization of the VSV pseudotype virus (GFP positive cells) [4]: reduction in the internalization
- inhibition of SARS-CoV-2 (virus titer) (SARS-CoV-2 [5]): seen at concentrations of 50 and 100 μM
- inhibition of nucleocapsid protein (viral marker) (SARS-CoV-2 [5]): seen at concentrations of 50 and 100 μM
- expression of pro-inflammatory cytokines (IL-6, IL-8, MCP-1, IP-10, CCL5 mRNA) [6]: reduce the expression of pro-inflammatory cytokines
- viral load (plaque assay) (SARS-CoV-2 strain FI): lower viral load than control cells
- inhibition of cytokine/chemokine stimulation (summary) [7]: significant, dose dependent inhibition
- reduction of progeny virus in throat swabs (TCID50) (SARS-CoV-2 [8]; treatment start 4 hours p.i.): 1.1 log 10
- tolerability, weight loss, adverse effects (SARS-CoV-2 [8]; treatment start 4 hours p.i.): well tolerated without significant weight loss
- reduction of viral load in throat swabs (PCR) (SARS-CoV-2 [8]; treatment start 4 hours p.i.): 1.1 log 10
- affected lung tissue (lung lesions, estimated percentage) (SARS-CoV-2 [8]; [11]): significantly reduced affected lung tissue
- reduction in infectious virus titers (TCID50/g tissue) in the nasal turbinates (SARS-CoV-2 [8]; [11]): 1.3 log 10
- reduction of viral load in the nasal turbinates (PCR) (SARS-CoV-2 [8]; [11]): 1.1 log 10
- reduction of progeny virus in throat swabs (TCID50) (SARS-CoV-2 [8]; treatment start 24 hours p.i.): 1.3 log 10
- tolerability, weight loss, adverse effects (SARS-CoV-2 [8]; treatment start 24 hours p.i.): well tolerated without significant weight loss
- reduction of viral load in throat swabs (PCR) (SARS-CoV-2 [8]; treatment start 24 hours p.i.): 1.2 log 10
- affected lung tissue (lung lesions, estimated percentage) (SARS-CoV-2 [8]; [12]): significantly reduced affected lung tissue
- infectious virus titers in the nasal turbinates (SARS-CoV-2 [8]; [12]): not the treatment started 24 hours p.i., significantly reduced infectious virus titers
- inhibition of cytokine/chemokine stimulation (summary) [9]: significant, dose dependent inhibition
- IL-1beta gene expression in lung [10]: decrease
- IL-8 gene expression in lung [10]: decrease
- IP-10 gene expression in lung [10]: decrease
- MCP-1 gene expression in lung [10]: decrease
- MIP-1beta gene expression in lung [10]: decrease
- TNF-alpha gene expression in lung [10]: decrease
- duration of the effect on progeny viral particles (SARS-CoV-2 (FI); Calu-3, MOI 0.01, 10-150 μM): maintained over the total infection time of 72 hours
- production of progeny viral particles (SARS-CoV-2 (FI); Calu-3, MOI 0.01, 10-150 μM, 24, 48, 72 h): concentration dependent decrease
- cell damage of infected cells (light microscopy) (SARS-CoV-2 (FI); Calu-3 infected with SARS-CoV-2): did not show the characteristic cell damage
- MCP-1 expression (MCP-1): able to reduce MCP-1 expression

Reference: patent US20230241014A1, “MEK-INHIBITORS FOR THE TREATMENT OR PREVENTION OF CORONAVIRUS INFECTIONS AND/OR COVID-19 CYTOKINE STORM” (priority 2020, published 2023)
